Columns and labels:
[1] = biological target: T1, oxytocin receptors (rat uterus membranes) (Rattus norvegicus, UniProt P70536); test: Oxytocin Receptor Binding; set-up: species or system female Sprague-Dawley rats
T1 construct: The resulting pellet containing the oxytocin receptors is resuspended; from tissue; host or cells: uterus membranes of DES-treated female Sprague-Dawley rats
T1 sequence (P70536 1-388): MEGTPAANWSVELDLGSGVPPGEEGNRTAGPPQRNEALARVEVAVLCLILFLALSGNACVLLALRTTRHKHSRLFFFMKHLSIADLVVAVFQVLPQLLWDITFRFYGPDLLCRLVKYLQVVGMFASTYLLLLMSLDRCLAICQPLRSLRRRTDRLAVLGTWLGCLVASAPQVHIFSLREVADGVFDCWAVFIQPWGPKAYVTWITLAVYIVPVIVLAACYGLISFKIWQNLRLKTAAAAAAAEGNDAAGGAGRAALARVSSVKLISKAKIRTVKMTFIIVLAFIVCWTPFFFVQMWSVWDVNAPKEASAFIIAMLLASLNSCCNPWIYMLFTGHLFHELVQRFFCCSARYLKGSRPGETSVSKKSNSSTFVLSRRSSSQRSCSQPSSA
Method: Female Sprague-Dawley rats weighing approximately 200-250 g are injected intramuscularly (i.m.) with 0.3 mg/kg of body weight of diethylstilbestrol (DES). The rats are sacrificed 18 hours later under pentobarbital anesthesia. The uteri are dissected out, cleaned of fat and connective tissues and rinsed in 50 ml of normal saline. The tissue pooled from six rats is homogenized in 50 ml of […] Tris.HCl, containing 0.5 mM dithiothreitol and 1.0 mM EDTA, adjusted to pH 7.4, using a polytron at setting 6 with three passes of 10 sec each. The homogenate is passed through two (2) layers of cheesecloth and the filtrate centrifuged at 1000×g for 10 min. The clear supernatant is removed and recentrifuged at 165,000×g for 30 min. The resulting pellet containing the oxytocin receptors is resuspended in 50.0 mM Tris.HCl containing 5.0 mM MgCl2 at pH 7.4, to give a protein concentration of 2.5 mg/ml of tissue suspension. This preparation is used in subsequent binding assays with [^3 H]Oxytocin.
Binding of 3,5-[^3 H]Oxytocin ([^3 H]OT) to its receptors is done in microtiter plates using [^3 H]OT, at various concentrations, in an assay buffer of 50.0 mM Tris.HCl, pH 7.4 and containing 5.0 mM MgCl2, and a mixture of protease inhibitors: BSA, 0.1 mg; aprotinin, 1.0 mg; 1,10-phenanthroline, 2.0 mg; […], 10.0 mg; and PMSF, 0.3 mg per 100 ml of buffer solution. Non-specific binding is determined in the presence of 1.0 uM unlabeled OT. The binding reaction is terminated after 60 min., at 22° C., by rapid filtration through glass fiber filters using a Brandel® cell harvester (Biomedical Research and Development Laboratories, Inc., Gaithersburg, Md.). Competition experiments are conducted at equilibrium using 1.0 nM [^3 H]OT and varying the concentration of the displacing agents. The concentrations of agent displacing 50% of [^3 H]OT at its sites (IC50) are calculated by a computer assisted LUNDON-2 program (LUNDON SOFTWARE INC., Ohio, USA).

[2] = biological target: T2, rat kidney medullary V2 receptors (Rattus norvegicus, UniProt Q00788); test: Binding Assay to Rat Kidney Medullary V2 Receptors; details: for inhibition at 10 µM: rat kidney, read-out: V2, % at concentration in brackets; for IC50: rat kidney medullary V2
T2 construct: Medullary tissues from rat kidneys are dissected out; from tissue; host or cells: rat kidney medulla membranes
Method in brief: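 Competition binding: [3H]AVP at 0.8 nM, test compounds from 50% DMSO, and membranes from rat kidney medulla, left 120 min on the bench. Filtration then liquid scintillation counting measured bound ligand; 1.0 μM unlabeled ligand set non-specific binding.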

[3] = biological target: vasopressin V1 receptor (rat liver plasma membranes) (Rattus norvegicus, UniProt P30560); test: Binding Assay to Rat Hepatic V1 Receptors; details: for inhibition at 10 µM: 2 h, rat hepatic, read-out: V1, % at concentration in brackets; for IC50: rat hepatic V1
vasopressin V2 = test: Vasopressin V2 Antagonist Activity in Conscious Hydrated Rats (diuretic effect); assay type: in vivo, normal Sprague-Dawley rats; details: AVP 0.4 μg/kg i.p.
Method in brief: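 Conscious rats were dosed orally at 0.1–100 mg/kg, and AVP 0.4 μg/kg i.p. in peanut oil followed 1 h later. Urine volume, osmolality and Na/K/Cl were compared against AVP-treated controls, with non-AVP rats as water-loading controls.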

vasopressin V1 = test: Vasopressin V1 Antagonist Activity in Conscious Rats (vasopressin vasopressor response); assay type: in vivo, rat (spontaneously hypertensive rats); details: 30 mg/kg i.v.
Method in brief: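 Conscious rats had the ventral caudal tail artery cannulated into the lower abdominal aorta under local procaine anesthesia, plus a caudal vein cannula for intravenous dosing. Pulsatile blood pressure was recorded via a Statham P23Db transducer. Vasopressor responses to vasopressin injections were measured before and after compound dosing, with percent antagonism calculated relative to the pre-drug response taken as 100%.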

[4] = biological target: T3, vasopressin V1 receptor subtype in human platelet membranes (Homo sapiens, UniProt P37288); test: Binding to Vasopressin V1 Receptor Subtype in Human Platelet Membranes; details: human platelet V1 (*)
T3 construct: tissue Hudson Valley Blood Services; host or cells: human blood platelets (frozen platelet rich plasma)
Method: (a) Platelet Membrane Preparation:
Frozen platelet rich plasma (PRP), received from the Hudson Valley Blood Services, are thawed to room temperature. (Platelet Source: Hudson Valley Blood Services, Westchester Medical Center, Valhalla, N.Y.). The tubes containing the PRP are centrifuged at 16,000×g for 10 min. at 4° C. and the supernatant fluid discarded. The platelets resuspended in an equal volume of 50.0 mM Tris.HCl, pH 7.5 containing 120 mM NaCl and 20.0 mM EDTA. The suspension is recentrifuged at 16,000×g for 10 min. This washing step is repeated one more time. The wash discarded and the lysed pellets homogenized in low ionic strength buffer of Tris.HCl, 5.0 mM, pH 7.5 containing 5.0 mM EDTA. The homogenate is centrifuged at 39,000×g for 10 min. The resulting pellet is resuspended in Tris.HCl buffer, 70.0 mM, pH 7.5 and recentrifuged at 39,000×g for 10 min. The final pellet is resuspended in 50.0 mM Tris.HCl buffer pH 7.4 containing 120 mM NaCl and 5.0 mM KCl to give 1.0-2.0 mg protein per ml of suspension.
(b) Binding to Vasopressin V1 Receptor Subtype in Human Platelet Membranes:
In wells of a 96 well format microtiter plate, add 100 μl of 50.0 mM Tris.HCl buffer containing 0.2% BSA and a mixture of protease inhibitors (aprotinin, leupeptin etc.). Then add 20 μl of [^3 H]Ligand (Manning or Arg^8 Vasopressin), to give final concentrations ranging from 0.01 to 10.0 nM. Initiate the binding by adding 80.0 μl of platelet suspension (approx. 100 μg protein). Mix all reagents by pipetting the mixture up and down a few times. Non specific binding is measured in the presence of 1.0 μM of unlabeled ligand (Manning or Arg^8 Vasopressin). Let the mixture stand undisturbed at room temperature for ninety (90) min. Upon this time, rapidly filter off the incubate under vacuum suction over GF/B filters, using a Brandel Harvester. The radioactivity caught on the filter disks is determined by the addition of liquid scintillant and counting in a liquid scintillator.

T2 sequence (Q00788 whole entry): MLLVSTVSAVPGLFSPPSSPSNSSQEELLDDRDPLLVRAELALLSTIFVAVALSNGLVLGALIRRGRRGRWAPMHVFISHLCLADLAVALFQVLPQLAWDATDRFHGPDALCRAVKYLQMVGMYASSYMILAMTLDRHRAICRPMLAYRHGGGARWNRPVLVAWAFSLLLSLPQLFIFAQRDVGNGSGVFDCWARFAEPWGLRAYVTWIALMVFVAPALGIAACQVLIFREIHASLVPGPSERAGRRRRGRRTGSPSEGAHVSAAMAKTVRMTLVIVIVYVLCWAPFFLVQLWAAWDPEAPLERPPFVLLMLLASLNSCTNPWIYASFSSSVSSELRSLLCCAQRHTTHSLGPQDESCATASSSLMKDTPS
vasopressin V1 receptor (rat liver plasma membranes), sequence (P30560 whole entry): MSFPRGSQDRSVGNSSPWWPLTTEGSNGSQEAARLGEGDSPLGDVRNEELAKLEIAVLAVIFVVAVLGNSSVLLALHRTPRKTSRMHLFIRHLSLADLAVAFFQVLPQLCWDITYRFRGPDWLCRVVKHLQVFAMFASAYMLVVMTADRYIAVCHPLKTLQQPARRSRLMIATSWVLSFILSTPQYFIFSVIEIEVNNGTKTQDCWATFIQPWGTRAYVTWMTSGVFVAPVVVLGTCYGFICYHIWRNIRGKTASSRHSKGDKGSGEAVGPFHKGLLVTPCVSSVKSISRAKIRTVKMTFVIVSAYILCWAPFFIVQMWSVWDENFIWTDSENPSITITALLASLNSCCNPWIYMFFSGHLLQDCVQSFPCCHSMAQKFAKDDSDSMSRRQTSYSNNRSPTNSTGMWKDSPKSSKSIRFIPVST
T3 sequence (P37288 whole entry): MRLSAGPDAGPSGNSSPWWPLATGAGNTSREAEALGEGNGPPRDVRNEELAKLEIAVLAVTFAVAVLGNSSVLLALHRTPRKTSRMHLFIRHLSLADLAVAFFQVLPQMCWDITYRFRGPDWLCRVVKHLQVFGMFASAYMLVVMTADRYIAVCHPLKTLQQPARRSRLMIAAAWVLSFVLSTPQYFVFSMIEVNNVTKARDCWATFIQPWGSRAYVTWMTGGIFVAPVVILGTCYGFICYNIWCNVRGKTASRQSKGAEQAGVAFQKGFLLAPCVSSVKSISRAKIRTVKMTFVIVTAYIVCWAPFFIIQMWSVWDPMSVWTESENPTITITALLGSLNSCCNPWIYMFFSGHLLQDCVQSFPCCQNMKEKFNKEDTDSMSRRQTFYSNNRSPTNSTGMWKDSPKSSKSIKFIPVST

Row | Structure (SMILES) | inhibition at 10 µM [1] | inhibition at 10 µM [2] | inhibition at 10 µM [3] | IC50 ([1]; second part of Table V) | IC50 [2] | IC50 [3] | also measured
1 | O=C(c1ccc(NS(=O)(=O)c2ccccc2Cl)cc1)N1Cc2ccccc2Cc2ccccc21 [Example 450, 5-[4-[[(2-Chlorophenyl)sulfonyl]amino]benzoyl]-6,11-dihydro-5H-dibenz [b,e]azepine] | 33% | 29% | 87% | – | – | – | –
2 | O=C(Nc1ccc(C(=O)N2Cc3ccccc3Cc3ccccc32)cc1)c1ccc(Cl)c(Cl)c1 [Example 250, N-[4-[(6,11-Dihydro-5H-dibenz[b,e]azepin-5-yl)-carbonyl]phenyl]-3,4-dichlorobenzamide] | 15% | 77% | 62% | – | – | – | Osmolality (vasopressin V2; 30 mg/kg orally): 1378 mOsm/kg; Urine Volume (vasopressin V2; 30 mg/kg orally): 6.5 ml/4 hrs.
3 | Cc1c(F)cccc1C(=O)Nc1ccc(C(=O)N2CCc3c[nH]nc3-c3ccccc32)c(Cl)c1 [Example 582] | – | – | – | 0.275 µM | 0.0053 µM | 1.3 µM | –
4 | Cc1c(F)cccc1C(=O)Nc1ccc(C(=O)N2Cc3ccccc3Cc3ccccc32)cc1 [Example 254, N-(4-[(6,11-Dihydro-5H-dibenz[b,e]azepin-5-yl)-carbonyl]phenyl]-2-methyl-3-fluorobenzamide] | 95% | – | – | – | 0.037 µM | 0.1 µM | IC50 ([1]; first part of Table V): 1.9 µM; MAX % Inhibition (vasopressin V1): 74%; Time of max % inhibition (vasopressin V1): 60 min
5 | Cc1ccccc1C(=O)Nc1ccc(C(=O)N2CCc3cnoc3-c3ccccc32)cc1 [Example 345, N-[4-[(4,5-Dihydro-6H-isoxazolo[4,5-d][1]benzazepin-6-yl)carbonyl]phenyl]-2-methylbenzamide] | 2% | 81% | 99% | – | – | – | –
6 | Cc1ccccc1C(=O)Nc1ccc(C(=O)N2CCc3c[nH]nc3-c3ccccc32)cc1 [Example 585, N-[4-[(4.5-Dihydropyrazolo[4.3-d][1]benzaze-in-6(2H)-yl)carbonyl]phenyl]-2-methylbenzamide] | 99% | – | – | 0.25 µM | 0.032 µM | – | IC50 [4]: 0.012 µM
7 | O=C(Nc1ccc(C(=O)N2Cc3ccccc3Cc3ccccc32)cc1)c1cc(Cl)cc(Cl)c1Cl [Example 249, N-[4-[(6,11-Dihydro-5H-dibenz[b,e]azepin-5-yl)-carbonyl]phenyl]-2,3 5-trichlorobenzamide] | 38% | 88% | 61% | – | – | – | –
8 | O=C(Nc1ccc(C(=O)N2Cc3ccccc3Cc3ccccc32)c(Cl)c1)c1ccc(Cl)cc1Cl [Example 256, N-[4-[(6,11-Dihydro-5H-dibenz[b,e]azepin-5-yl)-carbonyl]-3-chlorophenyl]-2,4-dichlorobenzamide] | 47% | – | – | – | 0.054 µM | 0.1 µM | IC50 ([1]; first part of Table V): 6.5 µM
9 | O=C(Nc1ccc(C(=O)N2CCc3c[nH]nc3-c3ccccc32)cc1)c1ccc(Cl)cc1Cl [Example 583, N-[4-[(4,5-Dihydropyrazolo[4,3-d][1]benzazepin-6(2H)-yl)carbonyl]phenyl]-2,4-dichlorobenzamide] | 95% | – | – | 0.33 µM | 0.04 µM | 0.082 µM | –
10 | CN(C)CC(=O)Nc1ccc(C(=O)N2Cc3ccccc3Cc3ccccc32)cc1 [Example 454] | 78% | 33% | 64% | 2.5 µM | – | – | –
11 | Cc1ccccc1COC(=O)c1ccc(C(=O)N2Cc3ccccc3Cc3ccccc32)cc1 [Example 266, (2-Methylphenyl)methyl 4-[(6,11-dihydro-5H-dibenz[b,e]azepin-5-yl)carbonyl)benzoate] | 15% | – | – | – | – | – | MAX % Inhibition (vasopressin V1): 21%; Time of max % inhibition (vasopressin V1): 120 min; Osmolality (vasopressin V2; 10 mg/kg orally): 1186 mOsm/kg; Urine Volume (vasopressin V2; 10 mg/kg orally): 4.3 ml/4 hrs.
12 | Cc1cccc(C(=O)Nc2ccc(C(=O)N3Cc4ccccc4Cc4ccccc43)cc2)c1C [Example 11, N-[4-[(6,11-Dihydro-5H-dibenz[b,e]azepin-5-yl)carbonyl]phenyl]-2,3-dimethylbenzamide] | 71% | – | – | – | 0.033 µM | 0.16 µM | IC50 ([1]; first part of Table V): 4.4 µM; Osmolality (vasopressin V2; 30 mg/kg orally): 1114 ± 55 mOsm/kg; Urine Volume (vasopressin V2; 30 mg/kg orally): 9.7 ± 0.6 ml/4 hrs.

Reference: patent US5834461A, “Tricyclic benzazepine vasopressin antagonists” (American Cyanamid Company, priority 1997, dated 1998)
